Values belong to the sequence of their own block, whether it stands above or below them.
Target: T1, MyD88^TIR (Homo sapiens, UniProt Q99836)
T1 construct: MyD88 (residues 148–296); 6xHis; made in house; host or cells: E. coli BL21 (DE3)
Assay: T‐Surf phage library (P8 and P3) selection against MyD88^TIR, four rounds, NGS read counts
Type: binding
Details: for Population: 4th round of selection against MyD88 TIR, share of NGS reads; for P3_MyD88 Rank (after) / P3_MyD88 Rank (before): P3 library; for P8_MyD88 Rank (after) / P8_MyD88 Rank (before): P8 library
Summary of the method: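 Four panning rounds on TIR domain adsorbed at 5 µg mL^−1; binding 1 h at 20–22 °C, elution with 100 mM HCl. Output: NGS read counts of round‐4 pools versus naïve library.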

[1] = P3_MyD88 pool: P3 T-Surf phage library
[2] = selection against MyD88 TIR, rank by count after grouping
[3] = selection against MyD88 TIR, rank by count before grouping
[4] = selection against MyD88, rank by count after grouping
[5] = selection against MyD88, rank by count before grouping
[6] = P8_MyD88: rank by NGS read count after grouping
[7] = P8_MyD88: rank by NGS read count before grouping
[8] = 4R selection against MyD88, rank after grouping
[9] = 4R selection against MyD88, rank before grouping
[10] = P8_MyD88: rank by count after grouping
[11] = P8_MyD88: rank by count before grouping
[12] = P8_MyD88 pool: P8 T-Surf phage library
[13] = P3_MyD88: rank by count after grouping
[14] = P3_MyD88: rank by count before grouping
[15] = selection against MyD88, rank after grouping
[16] = selection against MyD88, rank before grouping

T1 sequence (Q99836 148-296): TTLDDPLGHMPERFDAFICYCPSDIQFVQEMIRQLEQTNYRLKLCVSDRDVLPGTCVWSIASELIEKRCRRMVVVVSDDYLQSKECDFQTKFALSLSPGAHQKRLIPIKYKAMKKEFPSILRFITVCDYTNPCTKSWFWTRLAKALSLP

Sequence: SSFREGLCRLLELSKK
Population [1]: 0.0032%

Sequence: YLKWGYPRFWDRQRFP
P3_MyD88 Rank (after) [2]: 282
P3_MyD88 Rank (before) [3]: 1431

Sequence: DPQELDWIYQRLVSLF
P8_MyD88 Rank (after) [4]: 714
P8_MyD88 Rank (before) [5]: 2987

Sequence: DWEWDYRLPNLEGPPG
Rank (after) [6]: 891
Rank (before) [7]: 2486

Sequence: LGYHWIDWEYYVGTED
Rank (after) [10]: 440
Rank (before) [11]: 3301

Sequence: LKWGDERFWERLVYVM
P8_MyD88 Rank (after) [2]: 191
P8_MyD88 Rank (before) [3]: 250

Sequence: SREYASCSWALTELVH
P3_MyD88 Rank (after) [8]: 647
P3_MyD88 Rank (before) [9]: 3106

Sequence: SAAYYEFGERLIGRVE
Rank (after) [6]: 873
Rank (before) [7]: 3705

Sequence: SSWWALEELAHIIE
P8_MyD88 Rank (after) [8]: 634
P8_MyD88 Rank (before) [9]: 3803

Sequence: WSQPEFRAAMQAVLEL
P8_MyD88 Rank (after) [2]: 274
P8_MyD88 Rank (before) [3]: 530

Sequence: LVYHWIDWEYFVGIED
Population [12]: 0.0108%

Sequence: SSFREGLWRLLELSKN
Population [1]: 0.00349%

Sequence: NSSWALEELVKIMEAM
Rank (after) [10]: 186
Rank (before) [11]: 239

Sequence: YASCDDFDYYLETAVLLRHL
P8_MyD88 Rank (after) [15]: 570
P8_MyD88 Rank (before) [16]: 1770

Sequence: NELVHVCFSNENSQVG
P3_MyD88 Rank (after) [2]: 275
P3_MyD88 Rank (before) [3]: 3406

Sequence: WALNELLEIMQAKRDL
P8_MyD88 Rank (after) [2]: 258
P8_MyD88 Rank (before) [3]: 429

Sequence: ELDFSHFWLFDAGGEA
Population [12]: 0.0154%

Sequence: SSFREGVWRLLEVSKK
Rank (after) [13]: 151
Rank (before) [14]: 3148

Sequence: ELDFASNMEQFWDRLYY
Rank (after) [6]: 935
Rank (before) [7]: 3177

Sequence: LFWDRLLYSLHVTE
P8_MyD88 Rank (after) [15]: 569
P8_MyD88 Rank (before) [16]: 3208

Sequence: KEPERYQFAIPERDFP
P3_MyD88 Rank (after) [15]: 540
P3_MyD88 Rank (before) [16]: 3681

Sequence: YTALTNCGFHTFRDNV
P3_MyD88 Rank (after) [2]: 208
P3_MyD88 Rank (before) [3]: 1649

Sequence: DFLNWFIAPNSTVIEN
Rank (after) [10]: 457
Rank (before) [11]: 2364

Sequence: FDARTWFFQEMGIIVE
P8_MyD88 Rank (after) [8]: 603
P8_MyD88 Rank (before) [9]: 1307

Sequence: LKVESWRQALKERLP
Population [1]: 0.00378%

Sequence: STAMTNRGFHTFRDND
P3_MyD88 Rank (after) [4]: 688
P3_MyD88 Rank (before) [5]: 1427

Sequence: SENYATSPWALEKAGKL
Rank (after) [13]: 423
Rank (before) [14]: 2984

Sequence: SSFREGLWRLLKLSKK
Population [1]: 0.00349%

Sequence: DPQDLDWFYERQVSLL
Rank (after) [10]: 106
Rank (before) [11]: 568

Sequence: DYASSSWALDVLWNIF
Rank (after) [6]: 950
Rank (before) [7]: 2507

Sequence: SRLCVMCWKNCVLPN
P3_MyD88 Rank (after) [8]: 624
P3_MyD88 Rank (before) [9]: 3279

Sequence: YSFTGQLHRYMVQRGV
P3_MyD88 Rank (after) [8]: 649
P3_MyD88 Rank (before) [9]: 1434

Sequence: DPQVLDWYYERLVRLF
P8_MyD88 Rank (after) [8]: 626
P8_MyD88 Rank (before) [9]: 2646

Sequence: NNFSAFLFEALFENGI
Rank (after) [10]: 181
Rank (before) [11]: 240

Sequence: DPQGLDWFYERLFSQM
Rank (after) [10]: 396
Rank (before) [11]: 2679

Sequence: DPLGQVRLSFRLFRQI
P8_MyD88 Rank (after) [4]: 748
P8_MyD88 Rank (before) [5]: 2610

Sequence: DHHMDLTRGKAIKPEILG
P3_MyD88 Rank (after) [8]: 616
P3_MyD88 Rank (before) [9]: 2061

Sequence: LKAESCRQALEKSGKR
P3_MyD88 Rank (after) [8]: 631
P3_MyD88 Rank (before) [9]: 2533

Sequence: RTLFENLWESVYNISQ
P3_MyD88 Rank (after) [4]: 690
P3_MyD88 Rank (before) [5]: 2633

Sequence: YAFTGHLHHALRLNKIETF
Rank (after) [13]: 95
Rank (before) [14]: 278

Sequence: WDFASNMAQSWDRLYY
P8_MyD88 Rank (after) [2]: 246
P8_MyD88 Rank (before) [3]: 1595

Sequence: DWEWDYRLPNLEGPAC
P8_MyD88 Rank (after) [4]: 745
P8_MyD88 Rank (before) [5]: 2487

Sequence: LNWGDPYFWSKLRYAM
Population [1]: 0.00291%

Sequence: SSFRKGLWRLLELSKK
Population [1]: 0.00408%

Sequence: LGYHWNDGEYFVGIKD
P8_MyD88 Rank (after) [15]: 489
P8_MyD88 Rank (before) [16]: 3306

Sequence: SSFRQGLWRLRELSKK
Rank (after) [13]: 405
Rank (before) [14]: 3229

Sequence: PEKIMAAKMRLSITL
P3_MyD88 Rank (after) [2]: 274
P3_MyD88 Rank (before) [3]: 2702

Sequence: GEDTLYTFTGHLQATL
P3_MyD88 Rank (after) [4]: 719
P3_MyD88 Rank (before) [5]: 1830

Sequence: LSEESWRQALEKAGKL
P3_MyD88 Rank (after) [2]: 202
P3_MyD88 Rank (before) [3]: 2375

Sequence: NVHESEIIKEIVDTIV
Population [1]: 0.00291%

Sequence: PQDLVWFFEGLVSLIL
Rank (after) [6]: 952
Rank (before) [7]: 3420

Sequence: LGYHWIDWEYFVGIK
Rank (after) [6]: 874
Rank (before) [7]: 3264

Sequence: NQWRNALTAAAHLTGW
P3_MyD88 Rank (after) [4]: 721
P3_MyD88 Rank (before) [5]: 3494

Sequence: ASSPWALYELVEILTA
P8_MyD88 Rank (after) [4]: 683
P8_MyD88 Rank (before) [5]: 2333

Sequence: NDSLFWDRLPYSLNVT
Rank (after) [10]: 468
Rank (before) [11]: 3868

Sequence: YASYDDNDYYWMTHVLLRHM
P8_MyD88 Rank (after) [4]: 771
P8_MyD88 Rank (before) [5]: 1816

Sequence: SSFRRPVASAGTEQK
Rank (after) [13]: 471
Rank (before) [14]: 3247

Sequence: SAAYDDIWERLNRMIE
Rank (after) [10]: 481
Rank (before) [11]: 3737

Sequence: NYAASEWALRELIQIM
P8_MyD88 Rank (after) [15]: 528
P8_MyD88 Rank (before) [16]: 3837

Second part, the sequence after the results:

P3_MyD88 Rank (after) [8]: 666
P3_MyD88 Rank (before) [9]: 3653
Sequence: KEVEGWRCADQSGEP

P3_MyD88 Rank (after) [4]: 716
P3_MyD88 Rank (before) [5]: 3402
Sequence: NELVRVWSSKANSRVG

Rank (after) [10]: 471
Rank (before) [11]: 2786
Sequence: DPQDLDWFYERLLS

Population [1]: 0.00291%
Sequence: LVAHEISKKKKIFATI

P8_MyD88 Rank (after) [8]: 631
P8_MyD88 Rank (before) [9]: 1426
Sequence: WALDELWHILRALGLF

Rank (after) [10]: 110
Rank (before) [11]: 116
Population [12]: 0.02%
Sequence: WLESVLEDKFGYSLAL

Rank (after) [13]: 153
Rank (before) [14]: 944
Sequence: DHHLDLPRGKRLNRKFW

P3_MyD88 Rank (after) [2]: 273
P3_MyD88 Rank (before) [3]: 1637
Sequence: YTALINSGFHTFRDNH

P8_MyD88 Rank (after) [2]: 262
P8_MyD88 Rank (before) [3]: 693
Sequence: DYASSSWYLDELVHILW

P3_MyD88 Rank (after) [2]: 264
P3_MyD88 Rank (before) [3]: 2209
Sequence: ERLFIETQNVNKDLIG

Rank (after) [13]: 145
Rank (before) [14]: 1199
Sequence: SSFREGLWRLLELSET

P8_MyD88 Rank (after) [4]: 755
P8_MyD88 Rank (before) [5]: 2659
Sequence: DPQVRVWFYERLVSLF

Rank (after) [6]: 1019
Rank (before) [7]: 3427
Sequence: PQDLDWFYERLESLF

Rank (after) [13]: 133
Rank (before) [14]: 734
Sequence: SENYATSPWALKERLP

P8_MyD88 Rank (after) [4]: 752
P8_MyD88 Rank (before) [5]: 1758
Sequence: YAASPWWLVELVQIVG

Rank (after) [10]: 449
Rank (before) [11]: 878
Sequence: WAQEQDGFWVRLIEAL

P8_MyD88 Rank (after) [8]: 589
P8_MyD88 Rank (before) [9]: 3431
Sequence: PQDLDWFYDRLVSLIL

Population [1]: 0.0032%
Sequence: SSFREGLWRLLELTKK

P8_MyD88 Rank (after) [15]: 564
P8_MyD88 Rank (before) [16]: 2108
Sequence: YIIWFEDIQLIHLLCD

P3_MyD88 Rank (after) [2]: 238
P3_MyD88 Rank (before) [3]: 862
Sequence: YLKWAIRGFGIVCVL

P3_MyD88 Rank (after) [15]: 574
P3_MyD88 Rank (before) [16]: 1647
Sequence: YTALTIAAFIPFVIM

P8_MyD88 Rank (after) [15]: 488
P8_MyD88 Rank (before) [16]: 2947
Sequence: DPQDLNGFMNVCLAR

Rank (after) [6]: 875
Rank (before) [7]: 2171
Sequence: VANILGYHWFDWEYFVVIGD

P8_MyD88 Rank (after) [8]: 675
P8_MyD88 Rank (before) [9]: 1642
Sequence: WDYASNMEQFWDPLYY

Rank (after) [13]: 148
Rank (before) [14]: 800
Sequence: KNLFNELVHVWSSKANSLVG

P8_MyD88 Rank (after) [4]: 756
P8_MyD88 Rank (before) [5]: 3321
Sequence: LGYQWIDWEFFVGIED

Reference: paper PMC11714206, “Massively Parallel Screening of Toll/Interleukin‐1 Receptor (TIR)‐Derived Peptides Reveals Multiple Toll‐Like Receptors (TLRs)‐Targeting Immunomodulatory Peptides” (Advanced Science, 2024)
